Experimental data taken from ChEMBL document CHEMBL3774336, “Identification of spirooxindole and dibenzoxazepine motifs as potent mineralocorticoid receptor antagonists” (Bioorg Med Chem, 2016).

Tests used:
[1] = biological target: T1, Progesterone receptor (Homo sapiens) (UniProt P06401); assay: Inhibition of GST-tagged human progesterone receptor LBD domain expressed in insect cells at 10 uM by Gal4-based fluorescence polarization assay
T1 sequence (whole entry): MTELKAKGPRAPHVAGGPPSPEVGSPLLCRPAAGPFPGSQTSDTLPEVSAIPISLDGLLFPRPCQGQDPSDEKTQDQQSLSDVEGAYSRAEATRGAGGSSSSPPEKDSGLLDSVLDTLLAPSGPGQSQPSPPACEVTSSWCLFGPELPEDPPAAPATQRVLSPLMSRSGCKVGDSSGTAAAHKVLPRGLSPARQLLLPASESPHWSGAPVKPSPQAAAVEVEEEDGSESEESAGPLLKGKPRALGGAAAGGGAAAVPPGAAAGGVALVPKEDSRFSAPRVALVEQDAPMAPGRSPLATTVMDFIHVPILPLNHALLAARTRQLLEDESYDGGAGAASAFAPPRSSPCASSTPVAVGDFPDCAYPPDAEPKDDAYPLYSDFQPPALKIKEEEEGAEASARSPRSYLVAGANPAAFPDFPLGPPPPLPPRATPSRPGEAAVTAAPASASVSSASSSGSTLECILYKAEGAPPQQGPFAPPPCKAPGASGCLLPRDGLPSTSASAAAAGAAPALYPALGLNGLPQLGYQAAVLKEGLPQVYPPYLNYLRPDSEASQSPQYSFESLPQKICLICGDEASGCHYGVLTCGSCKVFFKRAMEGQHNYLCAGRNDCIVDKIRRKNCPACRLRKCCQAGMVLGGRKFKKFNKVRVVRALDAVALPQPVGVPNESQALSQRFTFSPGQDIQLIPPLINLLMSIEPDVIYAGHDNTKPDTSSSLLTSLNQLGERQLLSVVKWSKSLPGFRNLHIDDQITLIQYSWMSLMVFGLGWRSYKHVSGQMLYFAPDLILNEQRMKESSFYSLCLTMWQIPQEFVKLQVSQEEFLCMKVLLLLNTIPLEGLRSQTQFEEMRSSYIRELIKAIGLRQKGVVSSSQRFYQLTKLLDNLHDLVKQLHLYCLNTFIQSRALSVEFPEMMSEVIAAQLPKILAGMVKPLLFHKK

[2] = biological target: T2, Glucocorticoid receptor (Homo sapiens) (UniProt P04150); assay: Inhibition of GST-tagged human glucocorticoid receptor LBD domain expressed in insect cells at 10 uM by Gal4-based fluorescence polarization assay
T2 sequence (whole entry): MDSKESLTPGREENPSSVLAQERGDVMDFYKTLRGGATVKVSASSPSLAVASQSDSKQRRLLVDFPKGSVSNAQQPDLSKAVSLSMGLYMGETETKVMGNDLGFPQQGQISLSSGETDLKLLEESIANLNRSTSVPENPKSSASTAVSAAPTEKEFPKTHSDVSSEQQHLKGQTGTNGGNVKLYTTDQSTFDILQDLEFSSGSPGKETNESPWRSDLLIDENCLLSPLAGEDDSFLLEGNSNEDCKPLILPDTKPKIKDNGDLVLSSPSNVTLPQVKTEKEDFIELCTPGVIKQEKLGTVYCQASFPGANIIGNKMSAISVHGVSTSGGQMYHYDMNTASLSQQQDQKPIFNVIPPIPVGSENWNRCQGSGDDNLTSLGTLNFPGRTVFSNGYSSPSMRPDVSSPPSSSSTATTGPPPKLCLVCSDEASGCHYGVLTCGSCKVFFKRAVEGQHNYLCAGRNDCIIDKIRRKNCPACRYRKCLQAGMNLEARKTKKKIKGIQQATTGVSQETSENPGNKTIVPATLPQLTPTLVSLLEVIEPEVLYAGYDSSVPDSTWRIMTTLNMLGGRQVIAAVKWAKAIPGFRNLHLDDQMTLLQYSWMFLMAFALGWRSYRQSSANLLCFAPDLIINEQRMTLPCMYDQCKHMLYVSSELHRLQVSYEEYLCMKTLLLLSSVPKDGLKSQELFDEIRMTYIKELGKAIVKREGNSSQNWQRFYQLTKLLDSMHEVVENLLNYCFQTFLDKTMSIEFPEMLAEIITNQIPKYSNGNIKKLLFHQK

[3] = biological target: T3, Mineralocorticoid receptor (Homo sapiens, UniProt P08235, C808S)
T3 sequence (P08235 whole entry C808S): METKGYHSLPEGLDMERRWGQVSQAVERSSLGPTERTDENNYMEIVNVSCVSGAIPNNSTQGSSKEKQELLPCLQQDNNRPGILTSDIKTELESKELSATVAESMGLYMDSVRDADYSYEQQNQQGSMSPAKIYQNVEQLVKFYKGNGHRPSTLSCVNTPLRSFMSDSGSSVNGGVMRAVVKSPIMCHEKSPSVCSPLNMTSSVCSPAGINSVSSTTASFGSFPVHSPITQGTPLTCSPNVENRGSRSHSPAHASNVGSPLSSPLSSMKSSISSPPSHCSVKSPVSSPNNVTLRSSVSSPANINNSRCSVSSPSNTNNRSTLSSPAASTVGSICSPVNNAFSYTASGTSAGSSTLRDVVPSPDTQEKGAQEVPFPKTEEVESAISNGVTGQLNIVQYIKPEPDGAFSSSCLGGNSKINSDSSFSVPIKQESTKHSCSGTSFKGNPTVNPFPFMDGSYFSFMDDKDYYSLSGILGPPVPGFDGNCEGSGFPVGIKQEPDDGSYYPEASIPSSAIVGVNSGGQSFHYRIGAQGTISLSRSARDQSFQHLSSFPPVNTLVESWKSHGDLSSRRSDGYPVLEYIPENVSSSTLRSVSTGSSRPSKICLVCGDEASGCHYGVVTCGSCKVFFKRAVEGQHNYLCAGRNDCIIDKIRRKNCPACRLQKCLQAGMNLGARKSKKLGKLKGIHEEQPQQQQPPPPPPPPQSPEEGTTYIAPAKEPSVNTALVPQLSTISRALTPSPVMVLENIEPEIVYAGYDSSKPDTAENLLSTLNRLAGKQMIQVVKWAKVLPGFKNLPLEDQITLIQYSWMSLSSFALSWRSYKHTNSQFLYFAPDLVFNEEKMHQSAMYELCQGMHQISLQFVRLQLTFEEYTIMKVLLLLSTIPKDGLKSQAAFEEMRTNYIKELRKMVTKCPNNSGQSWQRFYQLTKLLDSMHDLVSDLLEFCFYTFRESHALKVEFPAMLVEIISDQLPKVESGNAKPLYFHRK

[4] = biological target: 5-hydroxytryptamine receptor 2B (Homo sapiens) (UniProt P41595); assay: Inhibition of serotonin 5H2B receptor (unknown origin) at 10 uM
Sequence of 5-hydroxytryptamine receptor 2B (Homo sapiens) (P41595 whole entry): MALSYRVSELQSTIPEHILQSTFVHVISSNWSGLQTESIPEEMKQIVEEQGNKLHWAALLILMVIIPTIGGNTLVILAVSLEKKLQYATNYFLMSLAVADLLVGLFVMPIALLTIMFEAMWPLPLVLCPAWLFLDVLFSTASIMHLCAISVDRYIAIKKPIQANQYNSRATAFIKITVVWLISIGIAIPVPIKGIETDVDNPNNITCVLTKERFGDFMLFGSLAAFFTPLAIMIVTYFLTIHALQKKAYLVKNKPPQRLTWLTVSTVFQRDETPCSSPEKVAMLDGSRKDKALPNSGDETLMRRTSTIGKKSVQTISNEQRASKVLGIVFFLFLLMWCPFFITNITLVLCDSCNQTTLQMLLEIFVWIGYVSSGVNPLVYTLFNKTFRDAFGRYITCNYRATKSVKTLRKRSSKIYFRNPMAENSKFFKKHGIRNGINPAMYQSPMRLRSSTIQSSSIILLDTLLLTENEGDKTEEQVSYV

[5] = biological target: Histamine H1 receptor (Homo sapiens) (UniProt P35367); assay: Inhibition of histamine H1 receptor (unknown origin) at 10 uM
Sequence of Histamine H1 receptor (Homo sapiens) (P35367 whole entry): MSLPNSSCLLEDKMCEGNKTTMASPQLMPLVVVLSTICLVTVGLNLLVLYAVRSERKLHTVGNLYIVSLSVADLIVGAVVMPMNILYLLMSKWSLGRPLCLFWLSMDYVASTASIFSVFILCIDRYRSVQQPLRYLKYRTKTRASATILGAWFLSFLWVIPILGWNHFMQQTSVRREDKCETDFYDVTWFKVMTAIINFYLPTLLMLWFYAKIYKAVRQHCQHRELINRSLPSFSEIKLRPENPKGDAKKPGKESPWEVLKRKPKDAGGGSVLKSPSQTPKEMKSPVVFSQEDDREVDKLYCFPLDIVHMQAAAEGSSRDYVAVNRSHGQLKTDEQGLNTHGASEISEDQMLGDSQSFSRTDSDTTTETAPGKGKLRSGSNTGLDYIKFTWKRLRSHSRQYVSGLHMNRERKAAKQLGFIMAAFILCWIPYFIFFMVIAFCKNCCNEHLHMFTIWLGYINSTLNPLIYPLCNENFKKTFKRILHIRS

[6] = biological target: T3, Mineralocorticoid receptor; remark: listed apart in the source
[7] = biological target: T4, Androgen receptor (Rattus norvegicus) (UniProt P15207); assay: Inhibition of GST-tagged rat androgen receptor LBD domain expressed in insect cells at 10 uM by Gal4-based fluorescence polarization assay
T4 sequence (whole entry): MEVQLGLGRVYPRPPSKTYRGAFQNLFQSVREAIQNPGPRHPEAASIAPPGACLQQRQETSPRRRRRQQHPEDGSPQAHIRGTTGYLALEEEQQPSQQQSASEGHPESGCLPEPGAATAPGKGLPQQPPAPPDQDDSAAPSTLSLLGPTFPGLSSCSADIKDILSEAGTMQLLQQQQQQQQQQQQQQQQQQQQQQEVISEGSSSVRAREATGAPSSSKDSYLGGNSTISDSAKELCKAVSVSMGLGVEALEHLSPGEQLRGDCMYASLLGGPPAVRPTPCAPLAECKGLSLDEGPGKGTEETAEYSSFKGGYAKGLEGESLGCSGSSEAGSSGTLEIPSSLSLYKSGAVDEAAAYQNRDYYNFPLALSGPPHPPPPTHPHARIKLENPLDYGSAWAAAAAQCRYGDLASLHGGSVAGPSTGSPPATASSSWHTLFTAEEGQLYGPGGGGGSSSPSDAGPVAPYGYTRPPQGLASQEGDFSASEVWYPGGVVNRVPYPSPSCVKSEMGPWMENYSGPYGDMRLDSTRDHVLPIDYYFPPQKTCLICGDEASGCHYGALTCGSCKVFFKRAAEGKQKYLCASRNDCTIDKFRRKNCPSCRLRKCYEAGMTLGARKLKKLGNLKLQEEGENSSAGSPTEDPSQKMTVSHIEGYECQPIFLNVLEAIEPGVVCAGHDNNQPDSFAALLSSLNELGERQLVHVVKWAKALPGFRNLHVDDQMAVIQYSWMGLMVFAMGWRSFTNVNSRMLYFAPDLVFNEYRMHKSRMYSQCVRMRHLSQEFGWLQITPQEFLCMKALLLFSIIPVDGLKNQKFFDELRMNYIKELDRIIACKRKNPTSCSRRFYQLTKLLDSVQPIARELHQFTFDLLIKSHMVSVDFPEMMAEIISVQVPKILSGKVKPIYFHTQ

Row | Compound | inhibition [1] [%] | inhibition [2] [%] | Ki [3] [nM] | inhibition [4] [%] | inhibition [5] [%] | IC50 [6] [nM] | inhibition [7] [%]
1 | O=C1COc2ccc(/C=C3\c4ccccc4COc4cc(F)ccc43)cc2N1 | 98 | 92 | 2 | 67 | 26 | 2 | 77
2 | CN1CCC2(CC1)C(=O)Nc1cc(/C=C3\c4ccccc4COc4cc(F)ccc43)ccc12 | < 40 | < 40 | 6 | 87 | 97 | 19 | < 40
